Measurements published in publication PMC9883482, “TPX2 enhances the transcription factor activation of PXR and enhances the resistance of hepatocellular carcinoma cells to antitumor drugs” (Cell Death & Disease, 2023).
Where two headings read alike, the source gives them in different places.

Tests used:
[1] = tested on: subcutaneous tumor tissue formed by MHCC97-L cells; experiment: Sorafenib metabolism/clearance in subcutaneous tumor tissues, LC-MS/MS; format: in vivo, nude mice; conditions: MHCC97-L subcutaneous tumour tissues, control group (rifampicin experiment)
Procedure: (§1) For HCC subcutaneous tumor tissue, HCC cells were first cultured for transfection after which the cells were inoculated subcutaneously into nude mice to form tumor tissue. […] The HCC tumor tissues were collected at each time point described previously with the addition of 72 and 96 h.
(§2) During the extraction of sorafenib samples from HCC tissue samples, the tissue samples were shredded to form tissue micro-blocks and then ground with liquid nitrogen. The samples ground with liquid nitrogen were mixed with PBS and then mixed with the organic solvent acetonitrile at a ratio of 1:1. The samples were then crushed and extracted for about 30 min using vortex shaking. After that, the samples were centrifuged at 12,000 rpm and at 4 °C for about 15 to 20 min. At this time, the sample was separated into cell debris and organic and water phases.
(§3) S transition pair was detected using LC–MS/MS: (1) the parent ion was 465 Da and (2) the product ion was 252 Da.
(§4) All statistical analyses in the presence work were performed using the GraphPad 8.0 (GraphPad Software Corporation, Armonk, NY, USA). […] For the survival analysis data, the survival curves were analyzed by the log-rank (Mantel–Cox) test to detect the P-value of the survival curve, the median survival time, and the 95% confidence interval (CI). For the co-relationship analysis, the data were analyzed by linear regression to determine the overall trend of a group of data points. […] If the slope was positive, the horizontal coordinate was positively related to the vertical coordinate, and if the slope was negative, the horizontal coordinate was negatively related to the vertical coordinate. For the multi-grouped data, the ordinary one-way analysis of variance (ANOVA) and multiple comparison methods were used. An ANOVA was used to examine whether any difference between groups could be detected. The multiple comparisons (t-test) was used to detect differences between pairs of data.

[2] = as above; format: in vivo, nude mice; conditions: nude, mouse, read-out: t1/2 values (converted)
Procedure: as §1, §2, §3, §4

MHCC97-L cells = experiment: MTT cell survival examination; format: cell-based; conditions: Homo sapiens, MHCC97L, 48 h, median (95% CI)
Procedure: (§5) In the process of dissolving these pure drug powders, stirring, vortexing, and ultrasonic vibration were used to assist dissolution [17, 18]. After a drug was fully dissolved, Dulbecco’s modified Eagle’s medium (DMEM) without fetal bovine serum (FBS) was used to dilute the drug dissolved in DMSO. For doxorubicin, we used DMEM without FBS to dissolve the drug. When performing cell viability experiments (tetrazolium [MTT] assays), these drugs were diluted.
(§6) The antitumor activity of antitumor drugs injuring HCC cells was examined by using MTT assay. After culturing the HCC cells, transfection experiments were performed, and the cells were then seeded in 96-well cell culture plates (about 8000 cells per well). […] After the cells were treated with the drug for about 48 h, a dose of […] tetrazolium (MTT) reagent was added, and cells with the MTT reagent were incubated for 5 to 6 h. After incubation with the MTT was complete, all liquid in the 96-well cell culture plate was discarded, and about 100 μl of DMSO was added to each well to dissolve the cell samples. During the process of lysing the cell samples, the cell culture plate was shaken for 15 minutes to completely lyse the cells. After the lysis step was complete, the cell culture plate was centrifuged at 12,000 rpm at 4 °C, and the supernatant was collected for evaluation.
as §4

HepG2 cells [3] = experiment: MTT cell survival examination; format: cell-based; conditions: Homo sapiens, HepG2, 48 h
Procedure: as §5, §6, §4

MHCC97-H cells = experiment: MTT cell survival examination; format: cell-based; conditions: Homo sapiens, MHCC97H, 48 h
Procedure: as §5, §6, §4

HepG2 cells [4] = experiment: Subcutaneous tumor model; format: in vivo; conditions: nude mice; 2.0, 1.0 or 0.5 mg/kg oral
Description: In the process of dissolving these pure drug powders, stirring, vortexing, and ultrasonic vibration were used to assist dissolution.
The HCC cells were transfected with plasmids and then injected into the subcutaneous position of nude mice (the HepG2 cells were transfected with TPX2 for TPX2 overexpression and the siRNA of TPX2 for TPX2 knockdown). After the cells in the bottom of the dish were digested with trypsin, the cells were gently mixed with sterilized PBS to prepare a cell suspension. The resulting cell suspension was directly injected subcutaneously into nude mice using a pre-sterilized disposable medical syringe with a capacity of 1 ml. After that step, animal status was observed every day, and the tumor tissue was collected after 4 to 6 weeks of growth to detect the tumor volume (using a Vernier caliper to measure the long and short axes of the tumor tissue after which the tumor volume was calculated according to the formula: short axis × short axis × long axis/2) and weight (accurately weighed with a 1/10000th precision balance). Finally, the tumor tissue was ground with liquid nitrogen, and qPCR was then used to measure the mRNA expression level of the corresponding genes. The intrahepatic tumor model and the in vivo imaging of small-animals-related experiments were performed according to our previous publications. […]

[5] = Blood concentration assay of sorafenib, mice bearing MHCC97-H tumours; format: in vivo; conditions: nude, mouse, plasma, 2 mg/kg, 2 mg/kg oral
Procedure: Table notes: After knockdown of TPX2 in MHCC97-H cells, the cells were inoculated with nude mice to form subcutaneous tumour tissue (the volume of tumour tissue was approximately 1 g) and then given 2 mg/kg via oral administration. After knockdown TPX2 in MHCC97-H cells, the cells were inoculated into nude mice to form subcutaneous tumour tissue and then in situ liver tumour tissue was established. 2mg/kg via oral administration was given to nude mice. Thereafter, blood levels of sorafenib were measured.

[6] = tested on: HCC subcutaneous tumor tissues; experiment: Sorafenib retention in HCC subcutaneous tumor tissues, LC-MS/MS; format: in vivo, nude mice; conditions: 72-h time point after intratumoral injection
Procedure: as §1, §2, §3

[7] = oral, Subcutaneous MHCC97-H Control tumour
[8] = oral, Subcutaneous MHCC97-H siTPX2 tumour
[9] = po, intrahepatic MHCC97-H Control tumour
[10] = po, intrahepatic MHCC97-H siTPX2 tumour

For CNC(=O)c1cc(Oc2ccc(NC(=O)Nc3ccc(Cl)c(C(F)(F)F)c3)cc2)ccn1 [sorafenib], the t1/2 values [1] was 29.70 [21.38–36.75], the half-life ([2]; subcutaneous tumor tissue formed by HepG2 cells, Control, median (95% CI)) was 29.4 h and the half-life ([2]; subcutaneous tumor tissue formed by HepG2 cells, TPX2 overexpression, median (95% CI)) was 18.5 h. For the same compound, the half-life ([2]; subcutaneous tumor tissue formed by HepG2 cells, siTPX2, median (95% CI)) was 42.2 h, the half-life ([2]; subcutaneous tumor tissue formed by MHCC97-H cells, Control, median (95% CI)) was 19.7 h and the half-life ([2]; subcutaneous tumor tissue formed by MHCC97-H cells, siTPX2, median (95% CI)) was 27.5 h. The half-life ([2]; subcutaneous tumor tissue formed by MHCC97-L cells, MHCC97-L tumor tissues, Control, median (95% CI)) was 28.3 h, the half-life ([2]; subcutaneous tumor tissue formed by MHCC97-L cells, MHCC97-L tumor tissues, TPX2 overexpression, median (95% CI)) was 13.5 h and the half-life ([2]; subcutaneous tumor tissue formed by MHCC97-L cells, other: injected directly into the tumor tissue, MHCC97-L subcutaneous tumour tissues, TPX2 overexpression + rifampicin 5 mg/kg oral) was 11.4 h. For the same compound, the half-life ([2]; subcutaneous tumor tissue formed by MHCC97-L cells, other: injected directly into the tumor tissue, MHCC97-L subcutaneous tumour tissues, TPX2 overexpression group (rifampicin experiment)) was 14 h, the IC50 (MHCC97-L cells; Control) was 1860 nM and the IC50 (MHCC97-L cells; TPX2 overexpression) was 4840 nM. It also gave an IC50 (HepG2 cells [3]; HepG2, Control, median (95% CI)) of 1270 nM, an IC50 (HepG2 cells [3]; HepG2, TPX2 overexpression, median (95% CI)) of 4680 nM and an IC50 (HepG2 cells [3]; HepG2, siTPX2, median (95% CI)) of 500 nM. The IC50 (MHCC97-H cells; Control, median (95% CI)) was 1160 nM, the IC50 (MHCC97-H cells; siTPX2, median (95% CI)) was 470 nM and the “subcutaneous growth of HepG2 cells (tumor volumes/weights)” value (HepG2 cells [4]) was “inhibited the subcutaneous growth of HepG2 cells in a dose-dependent manner”. It also gave a concentration at 2 h [5, 7] of 23.3 ± 16.6 ng/mL, a concentration at 2 h [5, 8] of 33.2 ± 19.4 ng/mL and a concentration at 8 h [5, 7] of 152 ± 25.4 ng/mL. It also gave a concentration at 8 h [5, 8] of 170 ± 32.3 ng/mL, a concentration at 20 h [5, 7] of 123 ± 23.6 ng/mL and a concentration at 20 h [5, 8] of 142 ± 21.4 ng/mL. The concentration at 40 h [5, 7] was 63 ± 14.5 ng/mL, the concentration at 40 h [5, 8] was 77.5 ± 23.5 ng/mL and the concentration at 2 h [5, 9] was 22.5 ± 11.8 ng/mL. For the same compound, the concentration at 2 h [5, 10] was 24.3 ± 14.2 ng/mL, the concentration at 8 h [5, 9] was 146 ± 28.7 ng/mL and the concentration at 8 h [5, 10] was 152 ± 22.1 ng/mL. The concentration at 20 h [5, 9] was 120 ± 32 ng/mL, the concentration at 20 h [5, 10] was 127 ± 31.2 ng/mL and the concentration at 40 h [5, 9] was 46.8 ± 31.9 ng/mL. For the same compound, the concentration at 40 h [5, 10] was 57.8 ± 27.6 ng/mL and the “metabolism and elimination in HCC tissues” value [6] was “almost completely metabolized and eliminated”.
